Laboratory results taken from ChEMBL document CHEMBL5291721, “A preclinical secondary pharmacology resource illuminates target-adverse drug reaction associations of marketed drugs” (Nat Commun, 2023).

How the values were obtained:
[1] = biological target: T1, Alpha-2A adrenergic receptor (Homo sapiens, UniProt P08913); type: functional, cell-based
T1 sequence (P08913 whole entry): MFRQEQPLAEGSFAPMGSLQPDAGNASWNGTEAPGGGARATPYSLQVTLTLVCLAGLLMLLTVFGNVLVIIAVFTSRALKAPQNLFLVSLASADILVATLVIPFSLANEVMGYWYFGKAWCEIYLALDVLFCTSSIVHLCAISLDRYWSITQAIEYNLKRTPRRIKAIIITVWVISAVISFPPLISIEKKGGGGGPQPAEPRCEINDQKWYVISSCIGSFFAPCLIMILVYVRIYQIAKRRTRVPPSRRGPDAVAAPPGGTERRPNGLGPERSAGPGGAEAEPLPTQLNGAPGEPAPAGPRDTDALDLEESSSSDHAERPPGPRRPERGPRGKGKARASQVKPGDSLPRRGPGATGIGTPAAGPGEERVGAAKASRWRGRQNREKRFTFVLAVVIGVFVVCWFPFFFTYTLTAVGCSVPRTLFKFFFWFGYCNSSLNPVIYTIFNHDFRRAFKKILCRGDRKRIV

[2] = biological target: T2, Muscarinic acetylcholine receptor M1 (Homo sapiens, UniProt P11229); type: functional, cell-based
T2 sequence (P11229 whole entry): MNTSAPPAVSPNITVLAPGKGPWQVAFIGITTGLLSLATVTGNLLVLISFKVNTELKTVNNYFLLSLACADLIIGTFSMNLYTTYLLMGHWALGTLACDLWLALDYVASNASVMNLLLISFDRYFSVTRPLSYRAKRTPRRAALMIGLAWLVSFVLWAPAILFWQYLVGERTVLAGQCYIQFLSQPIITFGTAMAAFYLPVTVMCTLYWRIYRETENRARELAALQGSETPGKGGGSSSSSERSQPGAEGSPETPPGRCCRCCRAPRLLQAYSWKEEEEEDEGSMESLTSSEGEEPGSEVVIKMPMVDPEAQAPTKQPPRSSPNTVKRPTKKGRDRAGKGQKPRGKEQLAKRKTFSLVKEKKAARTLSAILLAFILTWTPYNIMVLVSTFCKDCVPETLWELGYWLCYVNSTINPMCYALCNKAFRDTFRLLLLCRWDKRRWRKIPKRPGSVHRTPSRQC

[3] = biological target: T3, Muscarinic acetylcholine receptor M2 (Homo sapiens, UniProt P08172); type: functional, cell-based
T3 sequence (P08172 whole entry): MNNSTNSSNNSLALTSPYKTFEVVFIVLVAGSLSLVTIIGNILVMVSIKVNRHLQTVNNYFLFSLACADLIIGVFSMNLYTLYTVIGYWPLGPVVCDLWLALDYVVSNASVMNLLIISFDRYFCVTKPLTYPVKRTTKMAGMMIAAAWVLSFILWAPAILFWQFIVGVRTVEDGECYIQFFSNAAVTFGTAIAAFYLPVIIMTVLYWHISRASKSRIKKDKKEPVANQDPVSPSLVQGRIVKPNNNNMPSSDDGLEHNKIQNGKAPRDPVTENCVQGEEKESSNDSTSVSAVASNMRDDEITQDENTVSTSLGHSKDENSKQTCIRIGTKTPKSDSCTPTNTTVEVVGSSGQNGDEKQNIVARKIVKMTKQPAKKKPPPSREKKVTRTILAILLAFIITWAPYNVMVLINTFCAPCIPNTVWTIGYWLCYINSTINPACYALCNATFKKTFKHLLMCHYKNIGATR

Cannabinoid receptor 1 = Cannabinoid receptor 1 (Homo sapiens, UniProt P21554); type: functional, cell-based
Cannabinoid receptor 1, sequence (P21554 whole entry): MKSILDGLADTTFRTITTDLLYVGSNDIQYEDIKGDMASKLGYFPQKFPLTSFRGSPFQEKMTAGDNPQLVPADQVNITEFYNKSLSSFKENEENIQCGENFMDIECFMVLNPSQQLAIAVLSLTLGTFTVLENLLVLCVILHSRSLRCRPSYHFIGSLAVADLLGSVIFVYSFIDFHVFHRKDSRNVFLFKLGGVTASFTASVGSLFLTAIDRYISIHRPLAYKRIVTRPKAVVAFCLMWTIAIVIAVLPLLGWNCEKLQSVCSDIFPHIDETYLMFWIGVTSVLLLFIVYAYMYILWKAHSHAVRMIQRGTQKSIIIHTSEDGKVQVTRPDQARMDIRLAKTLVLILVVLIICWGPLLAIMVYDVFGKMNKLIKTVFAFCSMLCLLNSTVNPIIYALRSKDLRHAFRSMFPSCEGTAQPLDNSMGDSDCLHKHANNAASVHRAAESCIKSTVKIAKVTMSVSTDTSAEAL

[4] = biological target: Gamma-aminobutyric acid receptor subunit alpha-1 (Rattus norvegicus, UniProt P62813)
Gamma-aminobutyric acid receptor subunit alpha-1, sequence (P62813 whole entry): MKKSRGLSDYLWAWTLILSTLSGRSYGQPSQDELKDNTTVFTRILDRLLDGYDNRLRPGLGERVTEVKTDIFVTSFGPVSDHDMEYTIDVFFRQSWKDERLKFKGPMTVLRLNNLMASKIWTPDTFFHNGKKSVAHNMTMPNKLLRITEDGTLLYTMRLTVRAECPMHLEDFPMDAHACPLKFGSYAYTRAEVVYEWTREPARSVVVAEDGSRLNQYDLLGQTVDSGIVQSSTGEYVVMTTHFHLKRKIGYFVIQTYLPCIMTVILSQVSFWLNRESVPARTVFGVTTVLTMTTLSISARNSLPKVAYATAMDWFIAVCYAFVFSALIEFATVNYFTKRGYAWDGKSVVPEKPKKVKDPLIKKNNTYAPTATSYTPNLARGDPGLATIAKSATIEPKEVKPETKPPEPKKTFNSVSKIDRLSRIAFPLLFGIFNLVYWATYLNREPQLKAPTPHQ

Androgen receptor = biological target: T4, Androgen receptor (Homo sapiens, UniProt P10275)
T4 sequence (P10275 whole entry): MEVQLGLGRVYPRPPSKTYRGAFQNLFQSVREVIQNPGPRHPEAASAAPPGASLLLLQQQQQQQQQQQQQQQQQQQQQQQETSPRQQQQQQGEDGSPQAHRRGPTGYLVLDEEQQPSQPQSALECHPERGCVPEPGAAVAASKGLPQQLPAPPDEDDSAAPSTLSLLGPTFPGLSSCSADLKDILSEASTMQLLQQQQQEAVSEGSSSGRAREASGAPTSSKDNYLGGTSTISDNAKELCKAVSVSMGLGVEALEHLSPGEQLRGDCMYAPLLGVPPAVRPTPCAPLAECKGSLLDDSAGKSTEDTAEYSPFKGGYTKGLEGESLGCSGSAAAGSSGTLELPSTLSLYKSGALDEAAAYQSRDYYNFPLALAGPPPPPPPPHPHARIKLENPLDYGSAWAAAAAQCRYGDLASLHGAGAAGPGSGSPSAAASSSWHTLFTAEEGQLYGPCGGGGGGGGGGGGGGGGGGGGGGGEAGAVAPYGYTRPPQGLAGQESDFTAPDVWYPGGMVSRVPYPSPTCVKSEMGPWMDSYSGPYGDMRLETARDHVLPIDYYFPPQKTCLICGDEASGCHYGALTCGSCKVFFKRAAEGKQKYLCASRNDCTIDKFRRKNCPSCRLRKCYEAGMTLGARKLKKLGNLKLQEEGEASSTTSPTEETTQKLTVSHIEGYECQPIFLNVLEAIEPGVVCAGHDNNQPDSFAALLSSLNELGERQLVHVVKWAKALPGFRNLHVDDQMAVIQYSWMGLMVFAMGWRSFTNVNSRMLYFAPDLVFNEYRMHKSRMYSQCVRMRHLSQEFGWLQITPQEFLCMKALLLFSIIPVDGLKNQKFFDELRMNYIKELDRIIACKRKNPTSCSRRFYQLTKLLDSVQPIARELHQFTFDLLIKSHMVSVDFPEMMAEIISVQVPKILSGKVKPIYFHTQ

[5] = biological target: Sodium-dependent noradrenaline transporter (Homo sapiens, UniProt P23975)
Sodium-dependent noradrenaline transporter, sequence (P23975 whole entry): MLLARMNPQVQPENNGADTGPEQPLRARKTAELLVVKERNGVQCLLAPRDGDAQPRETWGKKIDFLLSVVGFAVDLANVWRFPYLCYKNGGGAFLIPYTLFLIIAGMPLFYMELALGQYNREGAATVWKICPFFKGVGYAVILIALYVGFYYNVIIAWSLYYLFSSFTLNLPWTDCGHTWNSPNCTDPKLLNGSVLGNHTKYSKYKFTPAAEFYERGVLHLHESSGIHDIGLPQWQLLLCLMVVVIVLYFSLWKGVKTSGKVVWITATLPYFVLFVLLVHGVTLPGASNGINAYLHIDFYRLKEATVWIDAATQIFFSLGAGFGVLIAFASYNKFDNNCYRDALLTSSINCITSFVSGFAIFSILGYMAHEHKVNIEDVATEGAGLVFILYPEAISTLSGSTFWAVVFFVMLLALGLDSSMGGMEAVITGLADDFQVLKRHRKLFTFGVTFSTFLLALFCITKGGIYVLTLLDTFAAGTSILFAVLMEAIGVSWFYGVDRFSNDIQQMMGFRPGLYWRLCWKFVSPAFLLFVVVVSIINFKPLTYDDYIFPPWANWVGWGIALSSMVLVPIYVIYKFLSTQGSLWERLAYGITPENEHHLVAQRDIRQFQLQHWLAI

[6] = biological target: T5, Equilibrative nucleoside transporter 1 (Homo sapiens, UniProt Q99808)
T5 sequence (Q99808 whole entry): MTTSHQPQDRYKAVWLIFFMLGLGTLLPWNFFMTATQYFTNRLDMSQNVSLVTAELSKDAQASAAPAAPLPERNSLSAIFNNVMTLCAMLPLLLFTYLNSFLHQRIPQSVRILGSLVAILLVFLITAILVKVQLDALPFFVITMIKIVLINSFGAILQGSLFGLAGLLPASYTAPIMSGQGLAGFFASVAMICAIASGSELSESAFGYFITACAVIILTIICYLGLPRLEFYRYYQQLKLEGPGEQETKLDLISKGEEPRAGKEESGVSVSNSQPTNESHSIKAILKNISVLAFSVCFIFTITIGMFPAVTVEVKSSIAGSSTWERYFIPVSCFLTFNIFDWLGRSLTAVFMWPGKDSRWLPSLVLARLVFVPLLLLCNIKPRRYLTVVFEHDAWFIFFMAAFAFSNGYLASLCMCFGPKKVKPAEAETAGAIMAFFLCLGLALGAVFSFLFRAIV
Also: assay procedure not described here.

| SMILES | AC50 [1] | AC50 [2] | AC50 [3] | AC50 (Cannabinoid receptor 1) | AC50 [4] | AC50 (Androgen receptor) | AC50 [5] | AC50 [6] |
| --- | --- | --- | --- | --- | --- | --- | --- | --- |
| C[N+](C)(C)CCOP(=O)(O)OP(=O)([O-])OC[C@H]1O[C@@H](n2ccc(N)nc2=O)[C@H](O)[C@@H]1O [CITICOLINE] | > 30 µM | > 30 µM | > 30 µM | > 30 µM | > 30 µM | > 30 µM | – | – |
| COc1ccccc1OC1(C)OC(=O)c2ccccc2O1 (stereo unspecified) [GUAIMESAL] | – | > 30 µM | – | – | > 30 µM | > 30 µM | > 30 µM | > 30 µM |
| COC(=O)[C@@H](N)Cc1ccc(O)c(O)c1 [MELEVODOPA] | – | 22.1 µM | – | – | > 30 µM | > 30 µM | – | – |
| C=CC(=O)Nc1cccc(Oc2nc(Nc3ccc(N4CCN(C)CC4)cc3)nc3ccsc23)c1 [OLMUTINIB] | – | 2.29 µM | – | – | > 30 µM | > 30 µM | – | – |
| CCCCC1C(=O)N(c2ccccc2)N(c2ccc(O)cc2)C1=O (stereo unspecified) [OXYPHENBUTAZONE ANHYDROUS] | – | > 30 µM | – | – | > 30 µM | > 30 µM | – | – |
| Nc1cccc2c1C(=O)N(C1CCC(=O)NC1=O)C2=O (stereo unspecified) [POMALIDOMIDE] | – | > 30 µM | – | – | > 30 µM | > 30 µM | – | – |
| CC[C@]12CCCN3CCc4c(n(c5ccccc45)[C@@](O)(C(=O)OC)C1)[C@@H]32 [VINCAMINE] | – | > 30 µM | – | – | > 30 µM | > 30 µM | – | – |
